Data published in patent US11192900B2, “Substituted 1,6-dihydropyridinones and 1,2-dihydroisoquinolinones as bet inhibitors” (NUVATION BIO INC., priority 2018, dated 2021).
pIC50: −log10 of the molar value. Like-named read-outs stand apart in the source and are kept apart here.

Assays:
BRD4-2 = BRD4-2 (Homo sapiens (Human), UniProt O60885); assay: Bromodomain and Extraterminal Domain (BET) Binding Assay; settings: Table 3; read-out: BRD4-2 IC50
Experimental: (§1) The bromodomain binding assays were performed by Reaction Biology Corp., Malvern, Pa., USA (www.reactionbiology.com). The BET binding assays were conducted in 384 well microplates in assay buffer (50 mM HEPES-HCl, pH 7.5, 100 mM NaCl, 1 mg/ml BSA, 0.05% CHAPS, and 0.5% DMSO) with compounds added as DMSO stocks at a single concentration or with 10-point dose response titrations. BET protein or assay buffer were delivered to the appropriate wells of the microplate. Test compound was then delivered by acoustic technology via a Labcyte Echo550 liquid handler. The microplate was centrifuged for 5 min and pre-incubated for 30 min at RT with gentle shaking. The ligand (histone H4 peptide (1-21) K5/8/12/16Ac-biotin) was delivered and the microplate was again centrifuged for 5 min and allowed to incubate for 30 min at RT with gentle shaking. Donor beads were then added in the absence of light and the microplate was centrifuged and gently shaken. After 5 min, acceptor beads were added in the absence of light and the microplate was centrifuged and gently shakenin the dark for 60 min. The microplate was read using a Perkin Elmer EnSpire Alpha plate reader (λEx/λEm=680/520-620 nm). Percent inhibition was calculated relative to positive and negative controls on a per plate basis. For titration experiments, IC50 values were determined by fitting the percent inhibition versus compound concentration.

c-Myc = assay: Measurement of c-Myc suppression after washoff (Western blot); format: cell-based, human; settings: MV4-11, 2 μM for 2 hr, washed, further 6 hr
Experimental: MV4-11 cells were incubated with 2 μM of JQ1, mivebresib or a test compound for 2 hr. The cells were then washed twice with fresh culture medium and further cultured for another 6 hr. Cells were extracted with SDS sample buffers and then subjected to Western blot analysis to measure c-Myc. Compounds 2, 3, 12, 17, 409, 411 and 412 were tested in these assays.

[1] = tested on: MV-4-11 human acute myeloid leukemia cell line; assay: Second cell viability assay in MV-4-11 (Cell Titer-Glo); format: cell-based; settings: Homo sapiens; MV4-11, Cell Titer-Glo, 72 hrs; read-out: Cell Viability IC50 in MV4-11 cells
Experimental: The effects of test compounds were studied in a second cell viability assay in the MV-4-11 human acute myeloid leukemia cell line. The cells were harvested during the logarithmic growth period and counted. Cells were seeded at a count of 15000 cells per well/100 μl. After seeding, cells were incubated at 37° C., 5% CO2 for 1 hr. Cells were treated with test compounds at 8 concentrations within a desired concentration range (e.g. 5 nM-[…]) for generation of dose response curves by preparing serial dilutions of the test compound in DMSO which were further diluted with culture medium and then added to each well. The plate was further incubated for another 72 hrs in a humidified incubator at 37° C. and 5% CO2. The assay was terminated by addition of Cell Titer-Glo reagent (Promega, Madison, Wis.) at ¼ the volume of total medium per well. Contents were mixed, the plate was incubated for 10 min at room temperature and luminescence was measured. Cell viability data were plotted using GraphPad Prism (GraphPad Software, Inc., San Diego, Calif.). In addition, a nonlinear regression model with a sigmoidal dose response and variable slope within GraphPad Prism was used to calculate the IC50 value of individual test compounds.

BRD4-1 = BRD4-1 (Homo sapiens (Human), UniProt O60885); assay: Bromodomain and Extraterminal Domain (BET) Binding Assay; settings: Table 3; read-out: BRD4-1 IC50
Experimental: as §1

22Rv1 cells = assay: 22Rv1 cell proliferation assay with wash-off or mock wash-off; format: cell-based, human
Experimental: A 22Rv1 cell proliferation assay was used to assess durability of test compound effects after transient exposure of test compound to cells. 22Rv1 cells were seeded at 3000 cells per well/100 μl in a 96-well plate and incubated with test compounds at specified dilutions for 2 hr at 37° C. and 5% CO2. Following the incubation, test compound was washed off and replacement culture medium without test compound was added. Wash-off was performed by three PBS washes. The cells were incubated for an additional 96 hr at 37° C. and 5% CO2. In parallel, a mock wash-off was performed with cells that were treated identically except that the replacement culture medium contained test compound. The plate was incubated for 4 hr at 37° C., 5% CO2 and fluorescence was measured using excitation and emission wavelengths of 535 and 590 nm, respectively. Cell viability data were plotted using GraphPad Prism (GraphPad Software, Inc., San Diego, Calif.). In addition, a nonlinear regression model with a sigmoidal dose response and variable slope within GraphPad Prism was used to calculate the IC50 value of individual test compounds.

| Compound | pIC50 (BRD4-2) | pIC50 [1] | pIC50 (BRD4-1) | c-Myc suppression activity after washoff (c-Myc) | pIC50 (22Rv1 cells; 22Rv1, 2 hr exposure, three PBS washes, additional 96 hr without compound, read-out: Wash-off IC50) | pIC50 (22Rv1 cells; 22Rv1, 2 hr, replacement medium with test compound, additional 96 hr, read-out: Mock wash-off IC50) |
| --- | --- | --- | --- | --- | --- | --- |
| C=CS(=O)(=O)Nc1ccc(Oc2ccc(F)cc2F)c(-c2cc(N)c(=O)n(C)c2)c1 [Compound 17, N-(3-(5-amino-1-methyl-6-oxo-1,6-dihydropyridin-3-yl)-4-(2,4-difluorophenoxy)phenyl)ethenesulfonamide] | 6.92 | 7.08 | – | sustained c-Myc suppression activity | – | – |
| C#CC(=O)Nc1ccc(Oc2c(C)cccc2C)c(-c2cn(C)c(=O)c3cc(C(=O)NCC)sc23)c1 [Compound 587, 7-(2-(2,6-dimethylphenoxy)-5-propiolamidophenyl)-N-ethyl-5-methyl-4-oxo-4,5-dihydrothieno[3,2-c]pyridine-2-carboxamide] | 7.96 | 7.35 | – | – | – | – |
| C=CC(=O)Nc1ccc(Oc2ccc(OC)cc2)c(-c2cn(C)c(=O)c3ccccc23)c1 [Compound 409, N-(4-(4-methoxyphenoxy)-3-(2-methyl-1-oxo-1,2-dihydroisoquinolin-4-yl)phenyl)acrylamide] | 7.12 | 6.60 | 6.32 | rebound in c-Myc expression | – | – |
| C=CC(=O)Nc1ccc(Oc2c(C)cccc2C)c(-c2cn(C)c(=O)cc2OC)c1 [Compound 584, N-(4-(2,6-dimethylphenoxy)-3-(4-methoxy-1-methyl-6-oxo-1,6-dihydropyridin-3-yl)phenyl)acrylamide] | 9.00 | 7.48 | 6.65 | less durable activity | – | – |
| C=CC(=O)Nc1ccc(Oc2c(C)cccc2C)c(-c2cn(C)c(=O)c3cc(C(=O)NCC)sc23)c1 [Compound 412, 7-(5-acrylamido-2-(2,6-dimethylphenoxy)phenyl)-N-ethyl-5-methyl-4-oxo-4,5-dihydrothieno[3,2-c]pyridine-2-carboxamide] | 8.40 | 7.60 | 5.76 | less durable or no suppression activity | – | – |
| CCS(=O)(=O)Nc1ccc(Oc2ccc(F)cc2F)c(-n2cc(C)c(=O)c3ccccc32)c1 [Compound 616, N-(4-(2,4-difluorophenoxy)-3-(3-methyl-4-oxoquinolin-1(4H)-yl)phenyl) ethanesulfonamide] | 8.40 | 7.42 | 7.96 | – | – | – |
| CCS(=O)(=O)Nc1ccc(Oc2ccc(F)cc2F)c(-c2cn(C)c(=O)c3[nH]ccc23)c1 [mivebresib, reference compound] | – | – | – | rebound in c-Myc expression | – | – |
| C=CC(=O)Nc1ccc(Oc2c(F)cccc2F)c(-c2cn(C)c(=O)c3ccccc23)c1 [Compound 583, N-(4-(2,6-difluorophenoxy)-3-(2-methyl-1-oxo-1,2-dihydroisoquinolin-4-yl)phenyl)acrylamide] | 7.11 | 6.60 | – | – | – | – |
| Cc1sc2c(c1C)C(c1ccc(Cl)cc1)=N[C@@H](CC(=O)OC(C)(C)C)c1nnc(C)n1-2 [JQ1, reference compound] | – | – | – | – | < 5.00 | 7.15 |
| C=CC(=O)Nc1ccc(Nc2c(C)cccc2C)c(-c2cn(C)c(=O)c3cc(C(=O)NCC)sc23)c1 [Compound 585, 7-(5-acrylamido-2-(2,6-dimethylphenylamino)phenyl)-N-ethyl-5-methyl-4-oxo-4,5-dihydrothieno[3,2-c]pyridine-2-carboxamide] | 7.37 | 6.66 | 5.30 | less durable activity | – | – |

Further lines, with some results ahead:

| pIC50 (BRD4-2) | pIC50 [1] | pIC50 (BRD4-1) | Compound | c-Myc suppression activity after washoff (c-Myc) | pIC50 (22Rv1 cells; 22Rv1, 2 hr exposure, three PBS washes, additional 96 hr without compound, read-out: Wash-off IC50) | pIC50 (22Rv1 cells; 22Rv1, 2 hr, replacement medium with test compound, additional 96 hr, read-out: Mock wash-off IC50) |
| --- | --- | --- | --- | --- | --- | --- |
| 8.22 | 7.09 | 5.55 | C=CC(=O)Nc1ccc(Oc2c(C)cc(F)cc2C)c(-c2cn(C)c(=O)c3cc(C(=O)NCC)sc23)c1 [Compound 588, 7-(5-acrylamido-2-(4-fluoro-2,6-dimethylphenoxy)phenyl)-N-ethyl-5-methyl-4-oxo-4,5-dihydrothieno[3,2-c]pyridine-2-carboxamide] | less durable activity | – | – |
| 7.89 | 6.76 | 4.90 | C=CC(=O)Nc1ccc(Oc2c(C)cccc2C)c(-c2cn(C)c(=O)c3sc(C(=O)NCC)cc23)c1 [Compound 381, 4-(5-acrylamido-2-(2,6-dimethylphenoxy)phenyl)-N-ethyl-6-methyl-7-oxo-6,7-dihydrothieno[2,3-c]pyridine-2-carboxamide] | – | – | – |
| 6.93 | – | 7.28 | C#CC(=O)Nc1ccc(Oc2ccc(F)cc2F)c(-c2cc(NC)c(=O)n(C)c2)c1 [Compound 2, N-(4-(2,4-difluorophenoxy)-3-(1-methyl-5-(methylamino)-6-oxo-1,6-dihydropyridin-3-yl)phenyl)propiolamide] | less durable or no suppression activity | – | – |
| 8.00 | 7.13 | 6.46 | C=CC(=O)Nc1ccc(Oc2c(C)cccc2C)c(-c2cc(NC)c(=O)n(C)c2)c1 [Compound 411, N-(4-(2,6-dimethylphenoxy)-3-(1-methyl-5-(methylamino)-6-oxo-1,6-dihydropyridin-3-yl)phenyl)acrylamide] | less durable or no suppression activity | – | – |
| 7.57 | 5.22 | – | C=CC(=O)Nc1ccc(Oc2ccc(F)cc2F)c(-n2cc(C)c(=O)c3ccccc32)c1 [Compound 613, N-(4-(2,4-difluorophenoxy)-3-(3-methyl-4-oxoquinolin-1(4H)-yl)phenyl)acrylamide] | – | – | – |
| 7.77 | 7.01 | 6.37 | C=CC(=O)Nc1ccc(Oc2c(C)cc(F)cc2C)c(-c2cc(NC)c(=O)n(C)c2)c1 [Compound 167, N-(4-(4-fluoro-2,6-dimethylphenoxy)-3-(1-methyl-5-(methylamino)-6-oxo-1,6-dihydropyridin-3-yl)phenyl)acrylamide] | – | – | – |
| 7.43 | – | – | C=CS(=O)(=O)Nc1ccc(Oc2ccc(OC)cc2)c(-c2cn(C)c(=O)c3ccccc23)c1 [Compound 12, N-(4-(4-methoxyphenoxy)-3-(2-methyl-1-oxo-1,2-dihydroisoquinolin-4-yl)phenyl)ethenesulfonamide] | less durable or no suppression activity | – | – |
| 7.92 | 6.74 | 5.14 | C=CC(=O)Nc1ccc(Oc2c(C)cccc2C)c(-c2cn(C)c(=O)cc2OC(C)C)c1 [Compound 589, N-(4-(2,6-dimethylphenoxy)-3-(4-isopropoxy-1-methyl-6-oxo-1,6-dihydropyridin-3-yl)phenyl)acrylamide] | – | – | – |
| 7.10 | 6.56 | – | C/C=C/S(=O)(=O)Nc1ccc(Oc2ccc(F)cc2F)c(-c2cn(C)c(=O)c3ccccc23)c1 [Compound 86, (E)-N-(4-(2,4-difluorophenoxy)-3-(2-methyl-1-oxo-1,2-dihydroisoquinolin-4-yl)phenyl)prop-1-ene-1-sulfonamide] | – | – | – |
